Holding throughout (assay): MIC / FIC index synergy test, 96-well microplate, optical density at 620 nm
Format in all cases: cell-based

For test [1], the system named is Staphylococcus aureus ATCC 6538. Conditions: compound alone; for MIC alone: first concentration giving growth <= 25%. An excerpt:
(§1) FIC Index=([…]) with: • MICa with B: minimum concentration of product A in the combination A+B which makes it possible to obtain an inhibitory effect • MICb with A: minimum concentration of product B in the combination A+B which makes it possible to obtain an inhibitory effect. • MICa: minimum inhibitory concentration of product A alone. • MICb: minimum inhibitory concentration of product B alone. […] As regards the combinations tested, MICa with b and MICb with a are the respective concentrations of A and of B in the combinations which make it possible to obtain a microbial growth percentage of less than or equal to 25%. When the FIC index value is less than or equal to 1, it is considered that the combination of test compounds has a synergistic effect. The microbial strain Staphylococcus aureus ATCC 6538 and a double-concentration nutritive broth liquid culture medium were used. A 96-well microplate and an incubation temperature of 32.5° C. are used. […] Successive dilutions were made with the 1‰ agar solution. 50 μl of each of the daughter solutions obtained containing compound A or B are added to the microplate wells. 100 μl of Sabouraud liquid nutrient broth inoculated at double concentration with the strain Candida albicans and 50 μl of aqueous 1‰ agar solution are also added thereto. 50 μl of each of the daughter solutions obtained containing compound A and 50 μl of each of the daughter solutions obtained containing compound B are added to the microplate wells. 100 μl of Sabouraud liquid nutrient broth inoculated at double concentration with the strain Candida albicans are also added thereto. […] The test as described above (tests, absorbance controls and growth control) was performed again to test the combination A+B on the following strains Enterococcus faecalis, Staphylococcus aureus, Pseudomonas aeruginosa, Candida albicans.

Test [2] has as its system Candida albicans ATCC 10231. Conditions: compound alone; for MIC alone: first concentration giving growth <= 25%. An excerpt: FIC Index=([…]) with: • MICa with B: minimum concentration of product A in the combination A+B which makes it possible to obtain an inhibitory effect • MICb with A: minimum concentration of product B in the combination A+B which makes it possible to obtain an inhibitory effect. • MICa: minimum inhibitory concentration of product A alone. • MICb: minimum inhibitory concentration of product B alone. […] The microbial strain Candida albicans ATCC 10231 and a double-concentration Sabouraud broth liquid culture medium were used. A 96-well microplate and an incubation temperature of 32.5° C. are used. […] Successive dilutions were made with the 1‰ agar solution. 50 μl of each of the daughter solutions obtained containing compound A or B are added to the microplate wells. 100 μl of Sabouraud liquid nutrient broth inoculated at double concentration with the strain Candida albicans and 50 μl of aqueous 1‰ agar solution are also added thereto. 50 μl of each of the daughter solutions obtained containing compound A and 50 μl of each of the daughter solutions obtained containing compound B are added to the microplate wells. 100 μl of Sabouraud liquid nutrient broth inoculated at double concentration with the strain Candida albicans are also added thereto. In the two cases (test and control), the inoculum represents the concentration of the strain Candida albicans present in the final volume of the wells (200 μl) and is between 2 and 6χ 10^5 cfu/ml of Candida albicans.

Test [3] deals with Aspergillus niger ATCC 6275.
Test [4] deals with Pseudomonas aeruginosa ATCC 9027. To be noted: for microbial growth percentage: compound alone; for MIC of compound alone: first concentration giving growth <= 25%.
Description: as §1, with “25%. […]” for “25%. When the FIC index value is less than or equal to 1, it is considered that the combination of test compounds has a synergistic effect.”, “strain Pseudomonas aeruginosa” for “strain Staphylococcus aureus”, “ATCC 9027” for “ATCC 6538”

Test [5] has as its system Enterococcus faecalis ATCC 33186. To be noted: compound alone; for % MIC alone: first concentration giving growth <= 25%.
Description: as §1, with “25%. […]” for “25%. When the FIC index value is less than or equal to 1, it is considered that the combination of test compounds has a synergistic effect.”, “strain Enterococcus faecalis” for “strain Staphylococcus aureus”, “ATCC 33186” for “ATCC 6538”, “double-concentration BHI (Brain Heart Infusion)” for “double-concentration nutritive”

Where [6] appears, read: compound alone, 0.0025 weight %.
Where [7] appears, read: first concentration giving growth <= 25%.

Several values for one entry are separate records, joined by “and”; a condition that tells them apart may be missing. Equal values may be shown once.

As to `CCOc1cc(CCC(C)=O)ccc1O` [A, 4-(3-ethoxy-4-hydroxyphenyl)butan-2-one], the microbial growth percentage in test [1] (0.0625 weight %) was 67% and 63% and 66%; in test [1] (0.125 weight %) it was 65% and 60% and 61%; in test [1] (0.25 weight %) it was 55% and 52% and 51%; in test [1] (0.5 weight %), 5% and 1%; in test [2] (0.025 weight %) it was 55% and 56% and 61% and 74% and 53%; in test [2] (0.2 weight %), 6%. Besides, the microbial growth percentage in test [3] (setting [6]) is 84%; in test [3] (compound alone, 0.025 weight %) it was 65% and 62%; in test [3] (compound alone, 0.05 weight %) it was 40% and 32%; in test [3] (compound alone, 0.0625 weight %) it was 84% and 96%; in test [3] (compound alone, 0.125 weight %), 40% and 41%; in test [3] (compound alone, 0.25 weight %) it was 6% and 7%. Moreover, the microbial growth percentage in test [3] (compound alone, 0.4 weight %) is 5%; in test [4] (0.25 weight %), 79% and 78% and 87%; in test [4] (0.5 weight %) it was 74% and 52% and 64%; in test [5] (1 weight %), 15% and 28% and 16%; in test [5] (2 weight %) it was 24%. Moreover, the MIC alone in test [1] is 0.5 weight %; in test [2] it was 0.1 weight % and 0.2 weight %. Besides, the “MIC of compound alone” value in test [3] (setting [7]) is 0.25 weight % and 0.1 weight % and 0.4 weight % and 0.2 weight %. Moreover, in test [5], the “% MIC alone” value was 1 weight % and 2 weight %.
With `O=C([O-])c1ccccc1.[Na+]` [B1, sodium benzoate], the microbial growth percentage is 51% in test [1] (0.0625 weight %); 34% in test [1] (0.125 weight %); 31% in test [1] (0.25 weight %); 5% in test [1] (0.5 weight %); 55% in test [2] (0.025 weight %); 33% in test [2] (0.05 weight %). Moreover, the microbial growth percentage in test [2] (0.1 weight %) was found to be 24%; in test [2] (0.2 weight %) it was 11%; in test [4] (0.0625 weight %), 93%; in test [4] (0.125 weight %), 96%; in test [4] (0.25 weight %), 116%; in test [4] (0.5 weight %), 89%. Moreover, the microbial growth percentage in test [4] (1 weight %) was determined as 0%. For the same compound, the MIC alone in test [1] was found to be 0.5 weight %; in test [2] it was 0.2 weight %. Moreover, the “MIC of compound alone” value in test [4] worked out at 1 weight %.
For `C/C=C/C=C/C(=O)[O-].[K+]` [B3, potassium sorbate], the microbial growth percentage is 58% in test [3] (compound alone, 0.025 weight %); 37% in test [3] (compound alone, 0.05 weight %); 10% in test [3] (compound alone, 0.1 weight %); 22% in test [5] (1 weight %); 10% in test [5] (2 weight %). Also, the “% MIC alone” value worked out at 0.1 weight % in test [3] (compound alone, first concentration giving growth <= 25%) and 2 weight % in test [5].
Consider `COC(=O)c1ccc(O)cc1` [B4, methyl 4-hydroxybenzoate], for which the microbial growth percentage in test [1] (0.25 weight %) is given as 51%; in test [1] (0.5 weight %) it was 44%; in test [1] (1 weight %), 19%; in test [2] (0.025 weight %), 67%; in test [2] (0.05 weight %), 40%; in test [2] (0.1 weight %) it was 28%. Also, the microbial growth percentage in test [2] (0.2 weight %) turned out to be 12%; in test [4] (0.0625 weight %) it was 187%; in test [4] (0.125 weight %), 150%; in test [4] (0.25 weight %), 142%; in test [4] (0.5 weight %), 1%. For the same compound, the MIC alone in test [1] is recorded as 1 weight %; in test [2] it was 0.2 weight %. The “MIC of compound alone” value in test [4] is given as 0.5 weight %.
`CCCOC(=O)c1ccc(O)cc1` [B5, propyl 4-hydroxybenzoate]: the microbial growth percentage in test [2] (0.025 weight %) stood at 52%; in test [2] (0.05 weight %), 33%; in test [2] (0.1 weight %), 21%; in test [4] (0.125 weight %), 76%; in test [4] (0.25 weight %), 45%; in test [4] (0.5 weight %), 42%. Moreover, the microbial growth percentage in test [4] (1 weight %) stood at 24%. Further, the MIC alone in test [2] came out at 0.1 weight %. In addition, the “MIC of compound alone” value in test [4] stood at 1 weight %.
With `CCCCCCCC(=O)c1ccc(O)c(C(=O)O)c1` [B6, 5-n-octanoylsalicylic acid], the microbial growth percentage in test [2] (0.0125 weight %) was 66%; in test [2] (0.025 weight %) it was 40%; in test [2] (0.05 weight %) it was 30%; in test [2] (0.1 weight %), 1%; in test [3] (compound alone, 0.025 weight %), 98%; in test [3] (compound alone, 0.05 weight %), 97%. Also, the microbial growth percentage in test [3] (compound alone, 0.1 weight %) was 17%; in test [5] (0.0125 weight %), 28%; in test [5] (0.025 weight %), 2%. Besides, in test [2], the MIC alone came out at 0.1 weight %. Further, the “MIC of compound alone” value in test [3] (setting [7]) is on record as 0.1 weight %. For the same compound, the “% MIC alone” value in test [5] came out at 0.025 weight %.
As to `CC(=O)c1c([O-])cc(C)oc1=O.[Na+]` [B8, sodium dehydroacetate], the microbial growth percentage amounted to 28% in test [2] (0.00125 weight %); 15% in test [2] (0.0025 weight %); 97% in test [3] (setting [6]); 29% in test [3] (compound alone, 0.005 weight %); 3% in test [3] (compound alone, 0.01 weight %); 3% in test [3] (compound alone, 0.02 weight %). Moreover, in test [2], the MIC alone turned out to be 0.0025 weight %. Further, the “MIC of compound alone” value in test [3] (setting [7]) is given as 0.02 weight %.

(Values after patent publication US20230247991A1, “ANTIMICROBIAL MIXTURE CONTAINING 4-(3-ETHOXY-4-HYDROXYPHENYL)BUTAN-2-ONE AND AN ORGANIC ACID COMPOUND, AND COSMETIC COMPOSITION CONTAINING SAME” (L'OREAL, priority 2017, published 2023).)
